Patent US20260356819A1, “OXOISOINDOLINYL-SUBSTITUTED […] DERIVATIVE AND USE THEREOF” (GLUETACS THERAPEUTICS (SHANGHAI) CO., LTD., priority 2023, published 2026)

How the values were obtained:
Type in all cases: cell-based
Conditions in all cases: compounds at 50 nM and 500 nM
IKZF3 = biological target: T1, IKZF3 (Homo sapiens, UniProt Q96SW2+Q9UKT9); test: Western blot degradation of IKZF3 in hPBMCs (24 h)
T1 construct: The supernatant was aspirated as the extracted total cell protein; endogenous in cells; host or cells: human peripheral blood mononuclear cells (hPBMCs)
Protocol: (§1) Conventional Western blot assay was performed to evaluate the effects of the compounds of the present disclosure on the expression of target proteins in cells. • (1) Cell Seeding and Protein Harvesting: Human peripheral blood mononuclear cells (hPBMCs) at a density of 1×10^6 cells/mL were thawed according to the PBMC Recovery Protocol (Milecell Biotechnologies Inc, Shanghai). The cells were then treated with the compounds of the present disclosure (including the compounds listed in Table 1, and the Examples 1-498 compounds) at concentrations of 50 nM and 500 nM. Controls included a negative control (DMSO) and a positive control (the commercial immunomodulatory drug lenalidomide), both processed following the identical experimental protocol as the compounds of the present disclosure. After 24 hours of compounds treatment, cells were harvested and lysed in RIPA protein lysate containing protease inhibitors on ice for 30 min, followed by centrifugation. The supernatant was aspirated as the extracted total cell protein. The protein concentration of the supernatant was determined using the conventional BCA (Bicinchoninic Acid) assay. • (2) To the collected supernatant, 5×SDS sample loading buffer was added, followed by denaturation at 95 °C for 5 minutes. The denatured samples were then separated by SDS-PAGE electrophoresis on a polyacrylamide gel. Proteins were transferred to a nitrocellulose membrane (0.45 μm NC membrane), blocked with blocking buffer at room temperature for 1 hour, and subjected to antibody incubation and development procedures according to the antibody manufacturer's instructions (Cell Signaling Technology).
(§2) Half-Maximal Degradation Concentration value (the drug concentration required for degrading proteins by 50%, abbreviated as DC50) reads method: comparing the grayscale values of Western blot bands from drug-treated samples with those from blank DMSO-treated controls, and identifying the drug concentration range at which the grayscale value is half that of the DMSO-treated control bands.
(§3) DC50 values can be calculated using ImageJ software to measure grayscale values of Western blot bands from drug-treated samples. The concentration-response curve is fitted to estimate the drug concentration corresponding to half the grayscale value.
(§4) Target protein remaining (%) refers to the percentage of target protein remaining in cells after treatment with protein degrader compounds.
(§5) Calculation method for target protein remaining (%): Use ImageJ software to measure grayscale values of Western blot bands from drug (protein degrader)-treated samples. The grayscale value of drug-treated bands is divided by that of internal control protein bands, and the resulting quotient is normalized to obtain the relative percentage of remaining target protein after protein degrader treatment.
(§6) Target protein degradation rate (%)=1−target protein remaining (%).

CK1α = biological target: T2, CK1α (Homo sapiens, UniProt P48729+Q96SW2); test: Western blot degradation of CK1α in hPBMCs (24 h)
T2 construct: The supernatant was aspirated as the extracted total cell protein; endogenous in cells; host or cells: human peripheral blood mononuclear cells (hPBMCs)
Protocol: as §1, §2, §3, §4, §5, §6

IKZF1 = biological target: T3, IKZF1 (Homo sapiens, UniProt Q13422+Q96SW2); test: Western blot degradation of IKZF1 in hPBMCs (24 h)
T3 construct: The supernatant was aspirated as the extracted total cell protein; endogenous in cells; host or cells: human peripheral blood mononuclear cells (hPBMCs)
Protocol: as §1, §2, §3, §4, §5, §6

GSPT1 = biological target: T4, GSPT1 (Homo sapiens, UniProt P15170+Q96SW2); test: Western blot degradation of GSPT1 in hPBMCs (24 h)
T4 construct: The supernatant was aspirated as the extracted total cell protein; endogenous in cells; host or cells: human peripheral blood mononuclear cells (hPBMCs)
Protocol: as §1, §2, §3, §4, §5, §6

WEE1 = biological target: T5, WEE1 (Homo sapiens, UniProt P30291+Q96SW2); test: Western blot degradation of WEE1 in hPBMCs (24 h)
T5 construct: The supernatant was aspirated as the extracted total cell protein; endogenous in cells; host or cells: human peripheral blood mononuclear cells (hPBMCs)
Protocol: as §1, §2, §3, §4, §5, §6

IKZF2 = biological target: T6, IKZF2 (Homo sapiens, UniProt Q96SW2+Q9UKS7); test: Western blot degradation of IKZF2 in hPBMCs (24 h)
T6 construct: The supernatant was aspirated as the extracted total cell protein; endogenous in cells; host or cells: human peripheral blood mononuclear cells (hPBMCs)
Protocol: as §1, §2, §3, §4, §5, §6

T6 sequence (Q9UKS7 whole entry): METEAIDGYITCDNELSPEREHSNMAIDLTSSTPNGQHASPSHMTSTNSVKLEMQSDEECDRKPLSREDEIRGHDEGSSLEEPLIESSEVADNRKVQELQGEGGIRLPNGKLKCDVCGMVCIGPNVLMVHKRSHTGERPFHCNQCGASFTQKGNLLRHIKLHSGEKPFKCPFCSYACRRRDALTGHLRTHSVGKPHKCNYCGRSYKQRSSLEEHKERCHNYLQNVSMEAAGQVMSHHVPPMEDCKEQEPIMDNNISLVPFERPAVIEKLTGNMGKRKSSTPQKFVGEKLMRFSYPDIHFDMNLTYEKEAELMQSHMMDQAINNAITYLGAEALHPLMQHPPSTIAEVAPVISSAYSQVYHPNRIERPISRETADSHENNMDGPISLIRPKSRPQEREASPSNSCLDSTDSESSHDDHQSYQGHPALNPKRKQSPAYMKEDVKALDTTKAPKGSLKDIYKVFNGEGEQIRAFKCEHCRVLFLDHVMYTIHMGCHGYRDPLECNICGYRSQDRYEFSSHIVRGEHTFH
T6 sequence (Q96SW2 whole entry): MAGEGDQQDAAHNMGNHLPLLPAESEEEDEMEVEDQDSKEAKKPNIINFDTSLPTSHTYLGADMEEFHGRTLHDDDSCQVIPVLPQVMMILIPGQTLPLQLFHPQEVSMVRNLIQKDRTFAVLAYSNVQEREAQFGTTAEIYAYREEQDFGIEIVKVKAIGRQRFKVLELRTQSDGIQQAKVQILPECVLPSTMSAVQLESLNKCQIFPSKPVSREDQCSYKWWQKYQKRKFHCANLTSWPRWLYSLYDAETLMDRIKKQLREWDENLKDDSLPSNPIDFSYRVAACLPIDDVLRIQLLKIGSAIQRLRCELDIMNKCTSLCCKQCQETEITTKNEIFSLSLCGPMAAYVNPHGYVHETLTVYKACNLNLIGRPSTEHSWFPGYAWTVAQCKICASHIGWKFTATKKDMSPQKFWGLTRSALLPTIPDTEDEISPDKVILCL
T6 sequence (Q16531 whole entry partner): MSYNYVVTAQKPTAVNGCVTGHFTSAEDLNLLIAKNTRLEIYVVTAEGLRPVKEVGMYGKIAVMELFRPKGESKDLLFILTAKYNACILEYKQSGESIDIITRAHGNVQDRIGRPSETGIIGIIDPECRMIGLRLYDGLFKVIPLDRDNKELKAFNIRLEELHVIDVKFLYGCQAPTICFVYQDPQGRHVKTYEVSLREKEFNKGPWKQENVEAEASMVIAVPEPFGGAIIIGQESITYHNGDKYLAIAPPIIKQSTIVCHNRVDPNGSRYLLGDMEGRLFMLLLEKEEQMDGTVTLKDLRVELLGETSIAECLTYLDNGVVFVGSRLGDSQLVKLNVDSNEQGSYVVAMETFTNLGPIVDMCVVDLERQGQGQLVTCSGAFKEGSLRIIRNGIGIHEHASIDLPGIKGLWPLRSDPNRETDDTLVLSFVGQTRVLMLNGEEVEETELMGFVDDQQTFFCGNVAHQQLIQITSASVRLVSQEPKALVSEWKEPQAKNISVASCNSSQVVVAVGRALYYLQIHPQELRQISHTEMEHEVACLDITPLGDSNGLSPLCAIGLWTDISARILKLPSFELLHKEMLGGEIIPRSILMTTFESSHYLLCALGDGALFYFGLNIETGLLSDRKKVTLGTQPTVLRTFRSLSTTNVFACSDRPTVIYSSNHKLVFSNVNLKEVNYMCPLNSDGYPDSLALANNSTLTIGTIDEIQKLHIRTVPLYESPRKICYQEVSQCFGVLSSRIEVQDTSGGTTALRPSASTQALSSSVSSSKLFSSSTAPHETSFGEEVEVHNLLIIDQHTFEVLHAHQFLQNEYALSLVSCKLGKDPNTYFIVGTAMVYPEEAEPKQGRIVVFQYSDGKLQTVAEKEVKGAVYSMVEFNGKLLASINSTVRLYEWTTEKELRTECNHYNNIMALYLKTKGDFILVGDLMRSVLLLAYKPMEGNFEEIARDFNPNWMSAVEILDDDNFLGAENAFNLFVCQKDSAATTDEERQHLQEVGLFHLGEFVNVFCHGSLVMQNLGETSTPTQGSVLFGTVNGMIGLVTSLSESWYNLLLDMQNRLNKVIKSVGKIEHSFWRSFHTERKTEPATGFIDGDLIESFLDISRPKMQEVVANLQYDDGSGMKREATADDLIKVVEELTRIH
T5 sequence (P30291 whole entry): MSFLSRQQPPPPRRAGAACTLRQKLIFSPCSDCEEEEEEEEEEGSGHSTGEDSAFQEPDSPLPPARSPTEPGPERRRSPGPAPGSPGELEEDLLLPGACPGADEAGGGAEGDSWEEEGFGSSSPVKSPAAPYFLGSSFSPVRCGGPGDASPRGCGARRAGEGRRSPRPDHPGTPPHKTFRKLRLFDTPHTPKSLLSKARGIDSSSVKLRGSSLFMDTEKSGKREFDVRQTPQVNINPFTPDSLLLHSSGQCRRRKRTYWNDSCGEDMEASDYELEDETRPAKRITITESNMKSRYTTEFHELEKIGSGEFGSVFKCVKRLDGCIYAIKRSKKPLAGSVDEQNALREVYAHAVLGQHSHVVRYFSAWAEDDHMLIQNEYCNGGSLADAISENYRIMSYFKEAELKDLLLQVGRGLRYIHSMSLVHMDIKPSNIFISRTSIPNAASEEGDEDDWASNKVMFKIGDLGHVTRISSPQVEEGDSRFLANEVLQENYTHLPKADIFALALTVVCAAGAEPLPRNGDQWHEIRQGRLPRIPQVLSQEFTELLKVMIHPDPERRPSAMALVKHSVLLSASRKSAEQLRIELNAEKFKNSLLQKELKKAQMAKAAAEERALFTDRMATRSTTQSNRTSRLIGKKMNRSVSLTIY
T5 sequence (Q96SW2 whole entry): as the sequence (Q96SW2 whole entry) above
T5 sequence (Q16531 whole entry partner): as the sequence (Q16531 whole entry partner) above
T3 sequence (Q13422 whole entry): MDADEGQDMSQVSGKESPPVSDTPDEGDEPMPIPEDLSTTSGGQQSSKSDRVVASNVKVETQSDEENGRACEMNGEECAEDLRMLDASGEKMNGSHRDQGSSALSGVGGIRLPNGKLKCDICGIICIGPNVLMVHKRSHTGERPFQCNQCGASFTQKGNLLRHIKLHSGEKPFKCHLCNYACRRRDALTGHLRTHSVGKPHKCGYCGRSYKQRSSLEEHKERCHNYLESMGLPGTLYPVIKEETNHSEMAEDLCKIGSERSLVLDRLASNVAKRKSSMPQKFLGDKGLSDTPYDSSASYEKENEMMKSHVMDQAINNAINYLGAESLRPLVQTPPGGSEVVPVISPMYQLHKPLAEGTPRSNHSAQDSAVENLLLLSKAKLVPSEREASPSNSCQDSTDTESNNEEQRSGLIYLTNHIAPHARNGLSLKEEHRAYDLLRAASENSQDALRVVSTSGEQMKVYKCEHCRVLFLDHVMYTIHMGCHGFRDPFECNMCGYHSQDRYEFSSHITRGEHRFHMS
T3 sequence (Q96SW2 whole entry): as the sequence (Q96SW2 whole entry) above
T3 sequence (Q16531 whole entry partner): as the sequence (Q16531 whole entry partner) above
T1 sequence (Q9UKT9 whole entry): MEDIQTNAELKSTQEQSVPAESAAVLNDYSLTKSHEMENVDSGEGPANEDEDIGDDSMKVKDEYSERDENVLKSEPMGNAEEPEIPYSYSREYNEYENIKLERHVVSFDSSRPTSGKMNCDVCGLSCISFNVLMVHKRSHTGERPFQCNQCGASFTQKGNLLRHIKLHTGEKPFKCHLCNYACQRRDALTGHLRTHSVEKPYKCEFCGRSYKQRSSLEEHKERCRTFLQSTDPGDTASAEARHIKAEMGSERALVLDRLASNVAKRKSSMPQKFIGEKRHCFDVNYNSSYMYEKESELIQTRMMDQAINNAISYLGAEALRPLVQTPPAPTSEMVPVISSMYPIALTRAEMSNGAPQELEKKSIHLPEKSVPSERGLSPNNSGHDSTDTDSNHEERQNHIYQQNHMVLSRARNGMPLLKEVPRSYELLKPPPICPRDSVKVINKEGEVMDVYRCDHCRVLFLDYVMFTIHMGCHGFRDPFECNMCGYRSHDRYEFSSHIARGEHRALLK
T1 sequence (Q96SW2 whole entry): as the sequence (Q96SW2 whole entry) above
T1 sequence (Q16531 whole entry partner): as the sequence (Q16531 whole entry partner) above
T4 sequence (P15170 whole entry): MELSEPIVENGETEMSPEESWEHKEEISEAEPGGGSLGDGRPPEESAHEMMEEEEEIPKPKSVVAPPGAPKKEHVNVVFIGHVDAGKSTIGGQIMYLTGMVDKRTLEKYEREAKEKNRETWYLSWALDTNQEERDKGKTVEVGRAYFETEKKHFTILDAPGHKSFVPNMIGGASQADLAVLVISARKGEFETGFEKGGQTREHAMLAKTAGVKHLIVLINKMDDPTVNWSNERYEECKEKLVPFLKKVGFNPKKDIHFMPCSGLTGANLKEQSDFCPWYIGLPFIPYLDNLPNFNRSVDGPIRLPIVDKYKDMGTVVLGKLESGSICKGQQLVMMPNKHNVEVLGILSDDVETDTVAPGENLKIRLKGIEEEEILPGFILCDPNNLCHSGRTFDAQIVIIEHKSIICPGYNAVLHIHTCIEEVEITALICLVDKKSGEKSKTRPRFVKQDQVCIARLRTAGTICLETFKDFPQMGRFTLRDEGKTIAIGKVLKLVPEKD
T4 sequence (Q96SW2 whole entry): as the sequence (Q96SW2 whole entry) above
T4 sequence (Q16531 whole entry partner): as the sequence (Q16531 whole entry partner) above

Row | Structure (SMILES) | IKZF3 substrate protein remaining % (IKZF3) | CK1α substrate protein remaining % (CK1α) | IKZF1 substrate protein remaining % (IKZF1) | GSPT1 substrate protein remaining % (GSPT1) | WEE1 substrate protein remaining % (WEE1) | IKZF2 substrate protein remaining % (IKZF2)
1 | O=C1CCN(N2Cc3cc(CN4CCN(c5ncccc5C(F)(F)F)CC4)ccc3C2=O)C(=O)N1 [GT-05174, 1-(1-oxo-5-((4-(3-(trifluoromethyl)pyridin-2-yl)piperazin-1-yl)methyl)isoindolin-2-yl)dihydropyrimidine-2,4(1H,3H)-dione] | B (80%< substrate protein remaining % ≤100%) | B (80%< substrate protein remaining % ≤100%) | B (80%< substrate protein remaining % ≤100%) |  |  | 
2 | O=C1CCN(N2Cc3cc(CN4CCN(c5cccc(C(F)(F)F)n5)CC4)ccc3C2=O)C(=O)N1 [GT-05175, 1-(1-oxo-5-((4-(6-(trifluoromethyl)pyridin-2-yl)piperazin-1-yl)methyl)isoindolin-2-yl)dihydropyrimidine-2,4(1H,3H)-dione] |  |  | B (80%< substrate protein remaining % ≤100%) | A (0% ≤ substrate protein remaining % ≤80%) | A (0% ≤ substrate protein remaining % ≤80%) | B (80%< substrate protein remaining % ≤100%)
3 | O=C1CCN(N2Cc3cc(CN4CCN(c5ccc(C(F)(F)F)cn5)CC4)ccc3C2=O)C(=O)N1 [GT-05176, 1-(1-oxo-5-((4-(5-(trifluoromethyl)pyridin-2-yl)piperazin-1-yl)methyl)isoindolin-2-yl)dihydropyrimidine-2,4(1H,3H)-dione] |  | B (80%< substrate protein remaining % ≤100%) | B (80%< substrate protein remaining % ≤100%) |  |  | B (80%< substrate protein remaining % ≤100%)
4 | O=C1CCN(N2C(=O)c3ccc(CN4CCN(c5ccccn5)CC4)cc3C2=O)C(=O)N1 [GT-05351, 2-(2,4-dioxotetrahydropyrimidin-1(2H)-yl)-5-((4-(pyridin-2-yl)piperazin-1-yl)methyl)isoindoline-1,3-dione] | B (80%< substrate protein remaining % ≤100%) | B (80%< substrate protein remaining % ≤100%) | B (80%< substrate protein remaining % ≤100%) |  |  | A (0% ≤ substrate protein remaining % ≤80%)
5 | O=C1CCN(N2C(=O)c3ccc(CN4CCN(c5cccc(Cl)n5)CC4)cc3C2=O)C(=O)N1 [GT-05353, 5-((4-(6-chloropyridin-2-yl)piperazin-1-yl)methyl)-2-(2,4-dioxotetrahydropyrimidin-1(2H)-yl)isoindoline-1,3-dione] | B (80%< substrate protein remaining % ≤100%) | B (80%< substrate protein remaining % ≤100%) | B (80%< substrate protein remaining % ≤100%) | A (0% ≤ substrate protein remaining % ≤80%) |  | B (80%< substrate protein remaining % ≤100%)
6 | O=C1CCN(N2C(=O)c3ccc(CN4CCN(c5cc(Cl)ccn5)CC4)cc3C2=O)C(=O)N1 [GT-05354, 5-((4-(4-chloropyridin-2-yl)piperazin-1-yl)methyl)-2-(2,4-dioxotetrahydropyrimidin-1(2H)-yl)isoindoline-1,3-dione] |  | B (80%< substrate protein remaining % ≤100%) | B (80%< substrate protein remaining % ≤100%) | A (0% ≤ substrate protein remaining % ≤80%) |  | 
7 | O=C1CCN(N2C(=O)c3ccc(CN4CCN(c5ncccc5F)CC4)cc3C2=O)C(=O)N1 [GT-05355, 2-(2,4-dioxotetrahydropyrimidin-1(2H)-yl)-5-((4-(3-fluoropyridin-2-yl)piperazin-1-yl)methyl)isoindoline-1,3-dione] | B (80%< substrate protein remaining % ≤100%) | B (80%< substrate protein remaining % ≤100%) | B (80%< substrate protein remaining % ≤100%) | A (0% ≤ substrate protein remaining % ≤80%) | B (80%< substrate protein remaining % ≤100%) | 
8 | O=C1CCN(N2Cc3cc(CN4CCN(c5ncc(Cl)cc5Cl)CC4)ccc3C2=O)C(=O)N1 [GT-05356, 1-(5-((4-(3,5-dichloropyridin-2-yl)piperazin-1-yl)methyl)-1-oxoisoindolin-2-yl)dihydropyrimidine-2,4(1H,3H)-dione] | B (80%< substrate protein remaining % ≤100%) | B (80%< substrate protein remaining % ≤100%) | B (80%< substrate protein remaining % ≤100%) |  |  | 
9 | O=C1CCN(N2Cc3cc(CN4CCN(c5nccc(F)c5F)CC4)ccc3C2=O)C(=O)N1 [GT-05357, 1-(5-((4-(3,4-difluoropyridin-2-yl)piperazin-1-yl)methyl)-1-oxoisoindolin-2-yl)dihydropyrimidine-2,4(1H,3H)-dione] | B (80%< substrate protein remaining % ≤100%) | B (80%< substrate protein remaining % ≤100%) | B (80%< substrate protein remaining % ≤100%) |  |  | B (80%< substrate protein remaining % ≤100%)
10 | O=C1CCN(N2Cc3cc(CN4CCN(c5nccc(I)c5F)CC4)ccc3C2=O)C(=O)N1 [GT-05406, 1-(5-((4-(3-fluoro-4-iodopyridin-2-yl)piperazin-1-yl)methyl)-1-oxoisoindolin-2-yl)dihydropyrimidine-2,4(1H,3H)-dione] | B (80%< substrate protein remaining % ≤100%) | B (80%< substrate protein remaining % ≤100%) | B (80%< substrate protein remaining % ≤100%) | A (0% ≤ substrate protein remaining % ≤80%) |  | 
11 | O=C1CCN(N2Cc3cc(CN4CCN(c5nccc(Cl)c5Br)CC4)ccc3C2=O)C(=O)N1 [GT-05432, 1-(5-((4-(3-bromo-4-chloropyridin-2-yl)piperazin-1-yl)methyl)-1-oxoisoindolin-2-yl)dihydropyrimidine-2,4(1H,3H)-dione] | B (80%< substrate protein remaining % ≤100%) | B (80%< substrate protein remaining % ≤100%) | B (80%< substrate protein remaining % ≤100%) |  | A (0% ≤ substrate protein remaining % ≤80%) | B (80%< substrate protein remaining % ≤100%)
12 | O=C1CCN(N2Cc3cc(CN4CCN(c5ncc(C(F)(F)F)cc5Cl)CC4)ccc3C2=O)C(=O)N1 [GT-05433, 1-(5-((4-(3-chloro-5-(trifluoromethyl)pyridin-2-yl)piperazin-1-yl)methyl)-1-oxoisoindolin-2-yl)dihydropyrimidine-2,4(1H,3H)-dione] | B (80%< substrate protein remaining % ≤100%) | B (80%< substrate protein remaining % ≤100%) | B (80%< substrate protein remaining % ≤100%) | A (0% ≤ substrate protein remaining % ≤80%) | A (0% ≤ substrate protein remaining % ≤80%) | 
13 | O=C1CCN(N2Cc3cc(CN4CCN(c5cccnc5)CC4)ccc3C2=O)C(=O)N1 [GT-05434, 1-(1-oxo-5-((4-(pyridin-3-yl)piperazin-1-yl)methyl)isoindolin-2-yl)dihydropyrimidine-2,4(1H,3H)-dione] | B (80%< substrate protein remaining % ≤100%) |  | B (80%< substrate protein remaining % ≤100%) | A (0% ≤ substrate protein remaining % ≤80%) | A (0% ≤ substrate protein remaining % ≤80%) | 
14 | O=C1CCN(N2Cc3cc(CN4CCN(c5ccncc5Br)CC4)ccc3C2=O)C(=O)N1 [GT-05439, 1-(5-((4-(3-bromopyridin-4-yl)piperazin-1-yl)methyl)-1-oxoisoindolin-2-yl)dihydropyrimidine-2,4(1H,3H)-dione] |  |  | B (80%< substrate protein remaining % ≤100%) |  | A (0% ≤ substrate protein remaining % ≤80%) | B (80%< substrate protein remaining % ≤100%)
